Data from patent US11066412B2, “Substituted pyrrolo[2,1-a]phthalazines and benzo[g]pyrrolo[2,1-a]phthalazines for the treatment of cancer” (Academia Sinica, priority 2017, dated 2021).
Like-named read-outs stand apart in the source and are kept apart here.

Key:
[1] = test system: human lymphoblastic leukemia cell line (CCRF-CEM); assay: in vitro cytotoxicity, PrestoBlue assay; assay type: cell-based; conditions: read-out: IC50 CCRF-CEM
Method: (§1) All representative compounds of Formulae (I-A) and (I-B) were first evaluated for their in vitro cytotoxicity to human lymphoblastic leukemia cell line (CCRF-CEM) and its vinblastine-resistant sub-cell line (CCRF-CEM/VBL) (see Table 1).
(§2) After a 72-hr incubation in various concentrations of the newly synthesized compounds, the cytotoxic effects of them to all cell lines were determined by the PrestoBlue®(Invitrogen) assay using a microplate spectrophotometer. Briefly, at the end of treatment, an aliquot of PrestoBlue® solution was added and then cells were incubated at 37° C. for 1-2 hr. The absorbance at 570 and 600 nm was measured with a microplate reader. […] The ICso is defined by the concentration required to inhibit tumor cell growth by 50%. Data represent the mean±STDEV of three to six independent experiments for each compound.

[2] = test system: small cell lung cancer H526; assay: in vitro cytotoxicity, PrestoBlue assay; assay type: cell-based, human; conditions: Table 3, read-out: IC50 H526
[3] = test system: H82; assay: in vitro cytotoxicity to SCLC cells; assay type: cell-based, human; conditions: Table 3
Method: as §2

[4] = test system: H1417; assay: in vitro cytotoxicity to SCLC cells; assay type: cell-based, human; conditions: Table 3
Method: as §2

[5] = test system: H211; assay: in vitro cytotoxicity to SCLC cells; assay type: cell-based, human; conditions: Table 3
Method: as §2

[6] = test system: H146; assay: in vitro cytotoxicity to SCLC cells; assay type: cell-based, human; conditions: Table 3
Method: as §2

[7] = test system: vinblastine-resistant sub-cell line (CCRF-CEM/VBL); assay: in vitro cytotoxicity, PrestoBlue assay; assay type: cell-based, human; conditions: for IC50: read-out: IC50 CEM/VBL; for resistance factor (IC50 CEM/VBL vs IC50 of the parent cell line): number in brackets
Method: as §1, §2

[8] = 72-hr incubation, mean ± STDEV of three to six experiments
[9] = Homo sapiens, CCRF-CEM, footnote d: IC50 values in nM

Row | SMILES | IC50 [1, 8] | IC50 [7, 8] | resistance factor (IC50 CEM/VBL vs IC50 of the parent cell line) [7] | also measured
1 | CCNC(=O)OCc1c(COC(=O)NCC)c2c3cc4ccccc4cc3c(N3CCOCC3)nn2c1C [BO-2756] | 310 ± 20 nM | 320 ± 40 nM | 1.03 × | IC50 [2]: 150 ± 87 nM; IC50 [3]: 740 ± 390 nM; IC50 [4]: 810 ± 20 nM; IC50 [5]: 130 ± 100 nM; IC50 [6]: 1510 ± 830 nM
2 | Cc1c(CO)c(CO)c2c3ccccc3c(N3CCCCC3)nn12 [BO-2720] | 1040 ± 120 nM | 1330 ± 130 nM | 1.28 × | 
3 | Cc1c(COC(=O)NC(C)C)c(COC(=O)NC(C)C)c2c3ccccc3c(N3CCCC3)nn12 [BO-2717] | 4110 ± 150 nM | 3160 ± 180 nM | 0.77 × | 
4 | Cc1c(COC(=O)NC(C)C)c(COC(=O)NC(C)C)c2c3ccccc3c(N(C)C)nn12 [BO-2787] | 1540 ± 220 nM | 970 ± 170 nM | 0.63 × | 
5 | CCNC(=O)OCc1c(COC(=O)NCC)c2c3cc4ccccc4cc3c(N3CCC(N4CCCCC4)CC3)nn2c1C [BO-2793] | 57 ± 4 nM | 104 ± 28 nM | 1.82 × | IC50 [2]: 10 ± 3 nM; IC50 [3]: 90 ± 40 nM; IC50 [4]: 130 ± 90 nM; IC50 [5]: 60 ± 20 nM; IC50 [6]: 310 ± 210 nM
6 | Cc1c(COC(=O)NC(C)C)c(COC(=O)NC(C)C)c2c3ccccc3c(N3CCCCC3)nn12 [BO-2722] | 1920 ± 110 nM | 1730 ± 90 nM | 0.90 × | 
7 | COc1ccc(-c2c(COC(=O)NC(C)C)c(COC(=O)NC(C)C)c3c4ccccc4c(N4CCOCC4)nn23)cc1 [BO-2631] | 2850 ± 1520 nM | 3070 ± 430 nM | 1.07 × | 
8 | N.N.O=C([O-])C1(C(=O)[O-])CCC1.[Pt+2] [Carboplatin, reference compound] |  |  |  | IC50 [2]: 6430 ± 140 nM; IC50 [4]: 8640 ± 1930 nM; IC50 [5]: 13900 ± 1560 nM; IC50 [6]: 37100 ± 6380 nM
9 | CC[C@]1(O)C[C@@H]2CN(CCc3c([nH]c4ccccc34)[C@@](C(=O)OC)(c3cc4c(cc3OC)N(C)[C@H]3[C@@](O)(C(=O)OC)[C@H](OC(C)=O)[C@]5(CC)C=CCN6CC[C@]43[C@@H]65)C2)C1 [Vinblastine, reference compound] |  |  | 278.3 × | IC50 [1, 9]: 1.41 ± 0.1 nM; IC50 [7, 9]: 392 ± 44.8 nM
10 | CCNC(=O)OCc1c(COC(=O)NCC)c2c3ccccc3c(N3CCOCC3)nn2c1CC [BO-2625] | 3440 ± 820 nM | 5110 ± 910 nM | 1.48 × | 
11 | Cc1c(CO)c(CO)c2c3ccccc3c(N(C)C)nn12 [BO-2785] | 3330 ± 390 nM | 2940 ± 260 nM | 0.88 × | 
12 | COc1cc([C@@H]2c3cc4c(cc3[C@@H](O[C@@H]3O[C@@H]5CO[C@@H](C)O[C@H]5[C@H](O)[C@H]3O)[C@H]3COC(=O)[C@H]23)OCO4)cc(OC)c1O [Etoposide, reference compound] |  |  |  | IC50 ([2]; Homo sapiens, NCI-H526): 200 ± 260 nM; IC50 ([3]; Homo sapiens, NCI-H82): 1080 ± 420 nM; IC50 ([4]; Homo sapiens, NCI-H1417): 4530 ± 3180 nM; IC50 ([5]; Homo sapiens, NCI-H211): 70 ± 10 nM; IC50 ([6]; Homo sapiens, NCI-H146): 2910 ± 170 nM
13 | CCNC(=O)OCc1c(COC(=O)NCC)c2c3ccccc3c(N3CCOCC3)nn2c1-c1ccc(OC)cc1 [BO-2630] | 6120 ± 880 nM | 7210 ± 250 nM | 1.18 × | 
14 | CCc1c(COC(=O)NC(C)C)c(COC(=O)NC(C)C)c2c3ccccc3c(N3CCOCC3)nn12 [BO-2626] | 3680 ± 250 nM | 1580 ± 200 nM | 0.43 × | 
15 | Cc1c(COC(=O)NC(C)C)c(COC(=O)NC(C)C)c2c3ccccc3c(N3CCOCC3)nn12 [BO-2574] | 1170 ± 180 nM | 960 ± 160 nM | 0.82 × | 
16 | CCNC(=O)OCc1c(COC(=O)NCC)c2c3ccccc3c(N3CCCCC3)nn2c1C [BO-2721] | 1280 ± 90 nM | 1230 ± 200 nM | 0.96 × | 
